For twelve molecules, DC50 and Dmax results are on record in US20260317324A1, “BIFUNCTIONAL COMPOUNDS FOR DEGRADING BRAF VIA UBIQUITIN PROTEOSOME PATHWAY” (Nurix Therapeutics, Inc., priority 2023, published 2026).

Each structure is given as a SMILES string.

The experiment addresses T1, BRAF V600E (Homo sapiens, UniProt P15056, V600E).
T1 construct: endogenous C-terminal HiBiT fusion tag on BRAF V600E allele; endogenous in cells; host or cells: A375 clone 1F10 (CRISPR-Cas9 knock-in of the HiBiT tag; parental A375 from ATCC)
The experiment is described as follows: BRAF HiBiT degradation assay, C-terminal HiBiT-tagged BRAF V600E A375 cells (clone 1F10), Nano-Glo HiBiT Lytic assay. Format: cell-based. Conditions: A375 (BRAF V600E); for DC50: DC50 at 50%: fitted conc. at Y=50; for Dmax: A-375, percentage protein degraded at maximal compound effect relative to DMSO. A digest of the protocol: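 Endogenous BRAF V600E-HiBiT A375 (1F10), 10,000 cells/well, 24 h preculture; cpd 11-pt, 1 μM–0.01 nM half-log, n=2, 0.2% DMSO; HiBiT lytic detection 10 min RT; DC50 = fitted conc at Y=50; Obs. Dmax vs DMSO.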

As usually defined, the DC50 is the midpoint of the concentration-degradation curve. By Dmax is commonly meant the largest share of the target that was removed.

T1 sequence (P15056 whole entry V600E, the tested form may be a part): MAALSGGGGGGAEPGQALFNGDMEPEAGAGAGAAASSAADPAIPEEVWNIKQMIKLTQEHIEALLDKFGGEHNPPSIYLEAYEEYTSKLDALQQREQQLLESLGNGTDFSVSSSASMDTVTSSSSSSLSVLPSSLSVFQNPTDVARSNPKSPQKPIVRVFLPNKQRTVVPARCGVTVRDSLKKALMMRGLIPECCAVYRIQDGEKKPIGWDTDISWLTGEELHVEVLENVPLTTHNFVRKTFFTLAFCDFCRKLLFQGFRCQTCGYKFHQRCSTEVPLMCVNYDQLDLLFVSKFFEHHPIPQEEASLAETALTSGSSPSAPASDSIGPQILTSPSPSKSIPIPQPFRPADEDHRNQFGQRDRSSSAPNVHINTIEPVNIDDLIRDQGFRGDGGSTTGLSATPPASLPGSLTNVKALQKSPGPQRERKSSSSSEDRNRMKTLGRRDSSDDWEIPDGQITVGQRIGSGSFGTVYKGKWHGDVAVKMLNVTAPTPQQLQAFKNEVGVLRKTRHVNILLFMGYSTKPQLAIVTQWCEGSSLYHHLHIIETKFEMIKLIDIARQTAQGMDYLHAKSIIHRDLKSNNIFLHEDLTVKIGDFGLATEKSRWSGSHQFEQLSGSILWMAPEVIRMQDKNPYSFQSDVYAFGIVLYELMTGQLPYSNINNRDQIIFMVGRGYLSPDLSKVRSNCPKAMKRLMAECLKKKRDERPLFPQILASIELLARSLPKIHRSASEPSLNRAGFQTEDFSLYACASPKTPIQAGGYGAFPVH

The molecule `CCCS(=O)(=O)Nc1cccc(-c2nc(C3CCN(C4CN(C(=O)CC5(O)CCN(c6ccc(NC7CCC(=O)NC7=O)cc6F)CC5)C4)CC3)sc2-c2ccnc(N)n2)c1F` (racemic) [Compound 214, Rac-N-{3-[5-(2-aminopyrimidin-4-yl)-2-[1-(1-{2-[1-(4-{[(3R)-2,6-dioxopiperidin-3-yl]amino}-2-fluorophenyl)-4-hydroxypiperidin-4-yl]acetyl}azetidin-3-yl)piperidin-4-yl]-1,3-thiazol-4-yl]-2-fluorophenyl}propane-1-sulfonamide] registered a half-maximal degradation concentration (DC50) of 10 to 50 nM and a Dmax of 30 to 70%.

As to `CCCS(=O)(=O)Nc1cccc(-c2nc(C3CCN(CC4CCN(C(=O)CC5CCN(c6ccc(C7CCC(=O)NC7=O)cn6)CC5)CC4)CC3)sc2-c2ccnc(N)n2)c1F` (racemic) [Compound 202, Rac-N-{3-[5-(2-aminopyrimidin-4-yl)-2-[1-({1-[2-(1-{5-[(3R)-2,6-dioxopiperidin-3-yl]pyridin-2-yl}piperidin-4-yl)acetyl]piperidin-4-yl}methyl)piperidin-4-yl]-1,3-thiazol-4-yl]-2-fluorophenyl}propane-1-sulfonamide], the half-maximal degradation concentration (DC50) was below 10 nM and the Dmax is above 70%.

As to `CCCS(=O)(=O)Nc1cccc(-c2nc(C)sc2-c2ccnc(Nc3ccc(N4CCN(CC5(C)CCN(c6ccc(C7CCC(=O)NC7=O)cn6)CC5)CC4)cc3)n2)c1F` (racemic) [Compound 32, Rac-N-[3-(5-{2-[(4-{4-[(1-{5-[(3R)-2,6-dioxopiperidin-3-yl]pyridin-2-yl}-4-methylpiperidin-4-yl)methyl]piperazin-1-yl}phenyl)amino]pyrimidin-4-yl}-2-methyl-1,3-thiazol-4-yl)-2-fluorophenyl]propane-1-sulfonamide], the DC50 was below 10 nM and the maximal degradation (Dmax) is above 70%.

`CCCS(=O)(=O)Nc1cccc(-c2cn(-c3ccc(C(=O)N4CCN(C(=O)CC5CCN(c6ccc(C7CCC(=O)NC7=O)cn6)CC5)CC4)cc3)nc2-c2ccncc2)c1F` (racemic) [Compound 13, Rac-N-{3-[1-(4-{4-[2-(1-{5-[(3R)-2,6-dioxopiperidin-3-yl]pyridin-2-yl}piperidin-4-yl)acetyl]piperazine-1-carbonyl}phenyl)-3-(pyridin-4-yl)-1H-pyrazol-4-yl]-2-fluorophenyl}propane-1-sulfonamide] registered a DC50 of 10 to 50 nM and a maximal degradation (Dmax) above 70%.

As to `CCCS(=O)(=O)Nc1cccc(-c2nc(-c3ccc(C4CCN(C(=O)C5CCN(c6ccc(C7CCC(=O)NC7=O)cn6)CC5)CC4)cc3)sc2-c2ccnc(N)n2)c1F` (racemic) [Compound 201, Rac-N-{3-[5-(2-aminopyrimidin-4-yl)-2-{4-[1-(1-{5-[(3R)-2,6-dioxopiperidin-3-yl]pyridin-2-yl}piperidine-4-carbonyl)piperidin-4-yl]phenyl}-1,3-thiazol-4-yl]-2-fluorophenyl}propane-1-sulfonamide], the DC50 lay in the range of 10 to 50 nM and the Dmax was in the range of 30 to 70%.

`CCCS(=O)(=O)Nc1cccc(-c2nc(C(C)(C)C)sc2-c2ccnc(Nc3cccc(OC4CCN(C(=O)C5CCN(c6ccc(C(=O)NC7CCC(=O)NC7=O)nc6)CC5)CC4)c3)n2)c1F` (racemic) [Compound 95, Rac-5-[4-(4-{3-[(4-{2-tert-butyl-4-[2-fluoro-3-(propane-1-sulfonamido)phenyl]-1,3-thiazol-5-yl}pyrimidin-2-yl)amino]phenoxy}piperidine-1-carbonyl)piperidin-1-yl]-N-[(3R)-2,6-dioxopiperidin-3-yl]pyridine-2-carboxamide] returned a half-maximal degradation concentration (DC50) of 10 to 50 nM and a Dmax of 30 to 70%.

As for `CCCS(=O)(=O)Nc1cccc(-c2nc(C3CCN(C(=O)C4(C)CCN(C(=O)C5CCN(c6ccc(C7CCC(=O)NC7=O)cn6)CC5)CC4)CC3)sc2-c2ccncc2)c1F` (racemic) [Compound 182, Rac-N-[3-(2-{1-[1-(1-{5-[(3R)-2,6-dioxopiperidin-3-yl]pyridin-2-yl}piperidine-4-carbonyl)-4-methylpiperidine-4-carbonyl]piperidin-4-yl}-5-(pyridin-4-yl)-1,3-thiazol-4-yl)-2-fluorophenyl]propane-1-sulfonamide], the 50% degradation concentration (DC50) is below 10 nM and the Dmax is above 70%.

Take `CCCS(=O)(=O)Nc1cccc(-c2nc(C3CCN(C(=O)C4(C)CCN(C(=O)C5CCN(c6ccc(C7CCC(=O)NC7=O)cc6)CC5)CC4)CC3)sc2-c2ccnc(N)n2)c1F` (racemic) [Compound 196, Rac-N-{3-[5-(2-aminopyrimidin-4-yl)-2-{1-[1-(1-{4-[(3R)-2,6-dioxopiperidin-3-yl]phenyl}piperidine-4-carbonyl)-4-methylpiperidine-4-carbonyl]piperidin-4-yl}-1,3-thiazol-4-yl]-2-fluorophenyl}propane-1-sulfonamide]: the 50% degradation concentration (DC50) is below 10 nM and the Dmax is above 70%.

`CCCS(=O)(=O)Nc1cccc(-c2nc(C3CCC4(CC3)CCN(C(=O)CN3CCN(c5ccc6c(c5)C(=O)N(C5CCC(=O)NC5=O)C6=O)CC3)CC4)sc2-c2ccnc(N)n2)c1F` (racemic) [Compound 231, Rac-N-{3-[5-(2-aminopyrimidin-4-yl)-2-{3-[2-(4-{2-[(3R)-2,6-dioxopiperidin-3-yl]-1,3-dioxo-2,3-dihydro-1H-isoindol-5-yl}piperazin-1-yl)acetyl]-3-azaspiro[5.5]undecan-9-yl}-1,3-thiazol-4-yl]-2-fluorophenyl}propane-1-sulfonamide] displayed a DC50 below 10 nM and a Dmax of 30 to 70%.

Turning to `CCCS(=O)(=O)Nc1cccc(-c2nc(C(C)(C)C)sc2-c2ccnc(Nc3ccc(C4CCN(C(=O)CCCC(=O)N[C@H](C(=O)N5C[C@H](O)C[C@H]5C(=O)N[C@@H](C)c5ccc(-c6scnc6C)cc5)C(C)(C)C)CC4)cc3)n2)c1F` [Compound 86, (2S,4R)-1-[(2S)-2-[5-(4-{4-[(4-{2-tert-butyl-4-[2-fluoro-3-(propane-1-sulfonamido)phenyl]-1,3-thiazol-5-yl}pyrimidin-2-yl)amino]phenyl}piperidin-1-yl)-5-oxopentanamido]-3,3-dimethylbutanoyl]-4-hydroxy-N-[(1S)-1-[4-(4-methyl-1,3-thiazol-5-yl)phenyl]ethyl]pyrrolidine-2-carboxamide], the DC50 lay in the range of 50 to 500 nM and the maximal degradation (Dmax) was in the range of 30 to 70%.

Regarding `CCCS(=O)(=O)Nc1cccc(-c2nc(-c3ccc(C4CCN(C(=O)CC5CCN(c6ccc(NC7CCC(=O)NC7=O)cc6)CC5)CC4)cc3)sc2-c2ccnc(N)n2)c1F` (racemic) [Compound 185, Rac-N-{3-[5-(2-aminopyrimidin-4-yl)-2-[4-(1-{2-[1-(4-{[(3R)-2,6-dioxopiperidin-3-yl]amino}phenyl)piperidin-4-yl]acetyl}piperidin-4-yl)phenyl]-1,3-thiazol-4-yl]-2-fluorophenyl}propane-1-sulfonamide], the DC50 is 10 to 50 nM and the Dmax was in the range of 30 to 70%.

Molecule `CCCS(=O)(=O)Nc1cccc(-c2nc(C(C)(C)C)sc2-c2ccnc(Nc3cnn(CC4CCN(C(=O)C5CCN(c6ccc(C(=O)NC7CCC(=O)NC7=O)nc6)CC5)CC4)c3)n2)c1F` (racemic) [Compound 115, Rac-5-{4-[4-({4-[(4-{2-tert-butyl-4-[2-fluoro-3-(propane-1-sulfonamido)phenyl]-1,3-thiazol-5-yl}pyrimidin-2-yl)amino]-1H-pyrazol-1-yl}methyl)piperidine-1-carbonyl]piperidin-1-yl}-N-[(3R)-2,6-dioxopiperidin-3-yl]pyridine-2-carboxamide] had a half-maximal degradation concentration (DC50) of 50 to 500 nM and a Dmax of 30 to 70%.
